The values below come from ChEMBL document CHEMBL1697781, “Assessment of the health effects of chemicals in humans: II. Construction of an adverse effects database for QSAR modeling” (Curr Drug Discov Technol, 2004).

Common to all, as to conditions: human
In data set [1] the test system is Hepatotoxicity. Description: FDA HLAED, serum glutamic oxaloacetic transaminase (SGOT) increase.
Data set [2] concerns Hepatotoxicity. Description: FDA HLAED, gamma-glutamyl transferase (GGT) increase.
Data set [3] deals with Hepatotoxicity. Description: FDA HLAED, liver enzyme composite activity.
Data set [4] has as its system Hepatotoxicity. In words: FDA HLAED, alkaline phosphatase increase.
Data set [5] has as its system Hepatotoxicity. Description: FDA HLAED, lactate dehydrogenase (LDH) increase.
Data set [6] deals with Hepatotoxicity. In words: FDA HLAED, serum glutamic pyruvic transaminase (SGPT) increase.

Where only a bound is given, the exact number is not on record here.
Wherever GGT Increase - Index Value is given: reference of the scale not given here.
Wherever LDH Increase - Index Value is given: reference of the scale not given here.

In the case of `Nc1nc(F)nc2c1ncn2[C@@H]1O[C@H](CO)[C@@H](O)[C@@H]1O` [FLUDARABINE], in the data set on Hepatotoxicity [1], the “SGOT Increase - Activity Score” value is “Active”, the “SGOT Increase - Index Value” is on record as 9.2 and the “SGOT Increase - Number of Reports” value is recorded as “>= 4”. Also, in the data set with Hepatotoxicity [2], the “GGT Increase - Activity Score” value is “Inactive”, the “GGT Increase - Index Value” is reported as 0 and the “GGT Increase - Number of Reports” value is on record as less than 4. Also, in the data set on Hepatotoxicity [3], the “Composite Activity - Active” value stood at 4, the “Composite Activity - Marginal” value is reported as 0 and the “Composite Activity - Score” value was “Active”. In the data set on Hepatotoxicity [4], the “Alkaline Phosphatase Increase - Activity Score” value is on record as “Active”, the “Alkaline Phosphatase Increase - Index Value” is on record as 9.2 and the “Alkaline Phosphatase Increase - Number of Reports” value is “>= 4”. Further, in the data set on Hepatotoxicity [5], the “LDH Increase - Activity Score” value was “Active”, the “LDH Increase - Index Value” was found to be 18.3 and the “LDH Increase - Number of Reports” value is on record as “>= 4”. In the data set on Hepatotoxicity [6], the “SGPT Increase - Activity Score” value is “Active”, the “SGPT Increase - Index Value” amounted to 10.7 and the “SGPT Increase - Number of Reports” value is “>= 4”.

`CCOC(=O)c1ncn2c1CN(C)C(=O)c1cc(F)ccc1-2` [FLUMAZENIL]: in the data set with Hepatotoxicity [1], the “SGOT Increase - Activity Score” value is given as “Inactive”, the “SGOT Increase - Index Value” turned out to be 2.5 and the “SGOT Increase - Number of Reports” value was less than 4. Besides, in the data set on Hepatotoxicity [2], the “GGT Increase - Activity Score” value is given as “Inactive”, the “GGT Increase - Index Value” is 0 and the “GGT Increase - Number of Reports” value was less than 4. In the data set on Hepatotoxicity [3], the “Composite Activity - Active” value is on record as 0, the “Composite Activity - Marginal” value is reported as 0 and the “Composite Activity - Score” value was “Inactive”. In addition, in the data set on Hepatotoxicity [4], the “Alkaline Phosphatase Increase - Activity Score” value was “Inactive”, the “Alkaline Phosphatase Increase - Index Value” was 0 and the “Alkaline Phosphatase Increase - Number of Reports” value was less than 4. For the same compound, in the data set on Hepatotoxicity [5], the “LDH Increase - Activity Score” value is listed as “Inactive”, the “LDH Increase - Index Value” is reported as 0 and the “LDH Increase - Number of Reports” value was less than 4. For the same compound, in the data set on Hepatotoxicity [6], the “SGPT Increase - Activity Score” value is “Inactive”, the “SGPT Increase - Index Value” was 2.5 and the “SGPT Increase - Number of Reports” value is listed as less than 4.

On to `CC1(C)O[C@@H]2C[C@H]3[C@@H]4C[C@H](F)C5=CC(=O)C=C[C@]5(C)[C@H]4[C@@H](O)C[C@]3(C)[C@]2(C(=O)CO)O1` [FLUNISOLIDE], for which, in the data set on Hepatotoxicity [1], the “SGOT Increase - Activity Score” value is “Inactive”, the “SGOT Increase - Index Value” was 0 and the “SGOT Increase - Number of Reports” value was less than 4. In the data set on Hepatotoxicity [2], the “GGT Increase - Activity Score” value was “Inactive”, the “GGT Increase - Index Value” is listed as 0 and the “GGT Increase - Number of Reports” value was less than 4. Besides, in the data set with Hepatotoxicity [3], the “Composite Activity - Active” value amounted to 0, the “Composite Activity - Marginal” value came to 0 and the “Composite Activity - Score” value was “Inactive”. Moreover, in the data set on Hepatotoxicity [4], the “Alkaline Phosphatase Increase - Activity Score” value is recorded as “Inactive”, the “Alkaline Phosphatase Increase - Index Value” came out at 0 and the “Alkaline Phosphatase Increase - Number of Reports” value is recorded as less than 4. Besides, in the data set with Hepatotoxicity [5], the “LDH Increase - Activity Score” value is “Inactive”, the “LDH Increase - Index Value” came out at 0 and the “LDH Increase - Number of Reports” value is less than 4. In the data set on Hepatotoxicity [6], the “SGPT Increase - Activity Score” value is given as “Inactive”, the “SGPT Increase - Index Value” stood at 0 and the “SGPT Increase - Number of Reports” value is less than 4.

With `CNCCC(Oc1ccc(C(F)(F)F)cc1)c1ccccc1` (configuration not stated) [FLUOXETINE], in the data set with Hepatotoxicity [1], the “SGOT Increase - Activity Score” value is recorded as “Active”, the “SGOT Increase - Index Value” is 9.6 and the “SGOT Increase - Number of Reports” value is reported as “>= 4”. In addition, in the data set with Hepatotoxicity [2], the “GGT Increase - Activity Score” value is recorded as “Marginally Active”, the “GGT Increase - Index Value” amounted to 3.3 and the “GGT Increase - Number of Reports” value is on record as “>= 4”. In addition, in the data set on Hepatotoxicity [3], the “Composite Activity - Active” value came to 3, the “Composite Activity - Marginal” value is 2 and the “Composite Activity - Score” value is given as “Active”. For the same compound, in the data set on Hepatotoxicity [4], the “Alkaline Phosphatase Increase - Activity Score” value is reported as “Active”, the “Alkaline Phosphatase Increase - Index Value” is on record as 4.7 and the “Alkaline Phosphatase Increase - Number of Reports” value is “>= 4”. Moreover, in the data set with Hepatotoxicity [5], the “LDH Increase - Activity Score” value is listed as “Marginally Active”, the “LDH Increase - Index Value” was found to be 3.2 and the “LDH Increase - Number of Reports” value was “>= 4”. For the same compound, in the data set with Hepatotoxicity [6], the “SGPT Increase - Activity Score” value was “Active”, the “SGPT Increase - Index Value” stood at 8.7 and the “SGPT Increase - Number of Reports” value is on record as “>= 4”.

`CC(C(=O)O)c1ccc(-c2ccccc2)c(F)c1` (configuration not stated) [FLURBIPROFEN]: in the data set with Hepatotoxicity [1], the “SGOT Increase - Activity Score” value is on record as “Inactive”, the “SGOT Increase - Index Value” worked out at 0.9 and the “SGOT Increase - Number of Reports” value is “>= 4”. Besides, in the data set with Hepatotoxicity [2], the “GGT Increase - Activity Score” value is “Inactive”, the “GGT Increase - Index Value” turned out to be 0.9 and the “GGT Increase - Number of Reports” value was “>= 4”. In the data set on Hepatotoxicity [3], the “Composite Activity - Active” value came out at 0, the “Composite Activity - Marginal” value amounted to 0 and the “Composite Activity - Score” value is listed as “Inactive”. In the data set on Hepatotoxicity [4], the “Alkaline Phosphatase Increase - Activity Score” value is reported as “Inactive”, the “Alkaline Phosphatase Increase - Index Value” worked out at 0.9 and the “Alkaline Phosphatase Increase - Number of Reports” value is listed as “>= 4”. Also, in the data set with Hepatotoxicity [5], the “LDH Increase - Activity Score” value is “Inactive”, the “LDH Increase - Index Value” is listed as 0.2 and the “LDH Increase - Number of Reports” value was less than 4. Further, in the data set with Hepatotoxicity [6], the “SGPT Increase - Activity Score” value is listed as “Inactive”, the “SGPT Increase - Index Value” worked out at 0.9 and the “SGPT Increase - Number of Reports” value is given as “>= 4”.

For `CC(C)C(=O)Nc1ccc([N+](=O)[O-])c(C(F)(F)F)c1` [FLUTAMIDE], in the data set on Hepatotoxicity [1], the “SGOT Increase - Activity Score” value is given as “Active”, the “SGOT Increase - Index Value” is on record as 22.4 and the “SGOT Increase - Number of Reports” value is reported as “>= 4”. In addition, in the data set on Hepatotoxicity [2], the “GGT Increase - Activity Score” value is “Active”, the “GGT Increase - Index Value” came to 6.7 and the “GGT Increase - Number of Reports” value was “>= 4”. For the same compound, in the data set with Hepatotoxicity [3], the “Composite Activity - Active” value worked out at 5, the “Composite Activity - Marginal” value is 0 and the “Composite Activity - Score” value is listed as “Active”. In the data set with Hepatotoxicity [4], the “Alkaline Phosphatase Increase - Activity Score” value is listed as “Active”, the “Alkaline Phosphatase Increase - Index Value” is given as 16.8 and the “Alkaline Phosphatase Increase - Number of Reports” value is “>= 4”. Besides, in the data set with Hepatotoxicity [5], the “LDH Increase - Activity Score” value is reported as “Active”, the “LDH Increase - Index Value” is reported as 8.4 and the “LDH Increase - Number of Reports” value is listed as “>= 4”. Moreover, in the data set with Hepatotoxicity [6], the “SGPT Increase - Activity Score” value was “Active”, the “SGPT Increase - Index Value” was found to be 20.2 and the “SGPT Increase - Number of Reports” value is on record as “>= 4”.

`C[C@@H]1C[C@H]2[C@@H]3C[C@H](F)C4=CC(=O)C=C[C@]4(C)[C@@]3(F)[C@@H](O)C[C@]2(C)[C@@]1(O)C(=O)SCF` [FLUTICASONE]: in the data set on Hepatotoxicity [1], the “SGOT Increase - Activity Score” value is “Inactive”, the “SGOT Increase - Index Value” was 0.8 and the “SGOT Increase - Number of Reports” value was less than 4. Further, in the data set on Hepatotoxicity [2], the “GGT Increase - Activity Score” value is “Inactive”, the “GGT Increase - Index Value” stood at 0 and the “GGT Increase - Number of Reports” value is less than 4. In the data set with Hepatotoxicity [3], the “Composite Activity - Active” value is given as 0, the “Composite Activity - Marginal” value came out at 0 and the “Composite Activity - Score” value was “Inactive”. Also, in the data set on Hepatotoxicity [4], the “Alkaline Phosphatase Increase - Activity Score” value was “Inactive”, the “Alkaline Phosphatase Increase - Index Value” worked out at 0 and the “Alkaline Phosphatase Increase - Number of Reports” value is less than 4. For the same compound, in the data set with Hepatotoxicity [5], the “LDH Increase - Activity Score” value is “Inactive”, the “LDH Increase - Index Value” is on record as 0 and the “LDH Increase - Number of Reports” value was less than 4. Also, in the data set with Hepatotoxicity [6], the “SGPT Increase - Activity Score” value was “Inactive”, the “SGPT Increase - Index Value” turned out to be 0.8 and the “SGPT Increase - Number of Reports” value is less than 4.

As to `CC(C)n1c(/C=C/C(O)CC(O)CC(=O)O)c(-c2ccc(F)cc2)c2ccccc21` (configuration not stated) [FLUVASTATIN], in the data set on Hepatotoxicity [1], the “SGOT Increase - Activity Score” value is “Inactive”, the “SGOT Increase - Index Value” is 1 and the “SGOT Increase - Number of Reports” value is listed as “>= 4”. Moreover, in the data set with Hepatotoxicity [2], the “GGT Increase - Activity Score” value is listed as “Inactive”, the “GGT Increase - Index Value” turned out to be 0.7 and the “GGT Increase - Number of Reports” value is given as “>= 4”. In the data set with Hepatotoxicity [3] (Liver), the “Composite Activity - Active” value stood at 0, the “Composite Activity - Marginal” value is on record as 0 and the “Composite Activity - Score” value is on record as “Inactive”. In the data set on Hepatotoxicity [4], the “Alkaline Phosphatase Increase - Activity Score” value is on record as “Inactive”, the “Alkaline Phosphatase Increase - Index Value” turned out to be 0.5 and the “Alkaline Phosphatase Increase - Number of Reports” value is given as “>= 4”. Besides, in the data set on Hepatotoxicity [5], the “LDH Increase - Activity Score” value is listed as “Inactive”, the “LDH Increase - Index Value” is 0 and the “LDH Increase - Number of Reports” value is recorded as less than 4. In the data set with Hepatotoxicity [6], the “SGPT Increase - Activity Score” value is “Inactive”, the “SGPT Increase - Index Value” came to 1 and the “SGPT Increase - Number of Reports” value was “>= 4”.

As for `COCCCC/C(=N\OCCN)c1ccc(C(F)(F)F)cc1` [FLUVOXAMINE], in the data set on Hepatotoxicity [1], the “SGOT Increase - Activity Score” value is given as “Active”, the “SGOT Increase - Index Value” was 8.9 and the “SGOT Increase - Number of Reports” value was “>= 4”. Moreover, in the data set with Hepatotoxicity [2], the “GGT Increase - Activity Score” value is given as “Inactive”, the “GGT Increase - Index Value” is on record as 1.4 and the “GGT Increase - Number of Reports” value is less than 4. Further, in the data set on Hepatotoxicity [3], the “Composite Activity - Active” value came out at 2, the “Composite Activity - Marginal” value is 0 and the “Composite Activity - Score” value is “Active”. Besides, in the data set with Hepatotoxicity [4], the “Alkaline Phosphatase Increase - Activity Score” value was “Inactive”, the “Alkaline Phosphatase Increase - Index Value” is reported as 2.7 and the “Alkaline Phosphatase Increase - Number of Reports” value is on record as “>= 4”. For the same compound, in the data set on Hepatotoxicity [5], the “LDH Increase - Activity Score” value is given as “Inactive”, the “LDH Increase - Index Value” worked out at 2.1 and the “LDH Increase - Number of Reports” value was less than 4. In the data set with Hepatotoxicity [6], the “SGPT Increase - Activity Score” value is “Active”, the “SGPT Increase - Index Value” is given as 8.9 and the “SGPT Increase - Number of Reports” value is “>= 4”.
